Source: US11541050B2, “Pyrimidine derivatives for the treatment of viral infections” (JANSSEN SCIENCES IRELAND UC, priority 2011, dated 2023)

Molecular target: T1, human TLR7 (wild type sequence) (Homo sapiens, UniProt Q9NYK1)
T1 construct: expressed in transfected cells; host or cells: HEK293
T1 sequence (Q9NYK1 27-1049): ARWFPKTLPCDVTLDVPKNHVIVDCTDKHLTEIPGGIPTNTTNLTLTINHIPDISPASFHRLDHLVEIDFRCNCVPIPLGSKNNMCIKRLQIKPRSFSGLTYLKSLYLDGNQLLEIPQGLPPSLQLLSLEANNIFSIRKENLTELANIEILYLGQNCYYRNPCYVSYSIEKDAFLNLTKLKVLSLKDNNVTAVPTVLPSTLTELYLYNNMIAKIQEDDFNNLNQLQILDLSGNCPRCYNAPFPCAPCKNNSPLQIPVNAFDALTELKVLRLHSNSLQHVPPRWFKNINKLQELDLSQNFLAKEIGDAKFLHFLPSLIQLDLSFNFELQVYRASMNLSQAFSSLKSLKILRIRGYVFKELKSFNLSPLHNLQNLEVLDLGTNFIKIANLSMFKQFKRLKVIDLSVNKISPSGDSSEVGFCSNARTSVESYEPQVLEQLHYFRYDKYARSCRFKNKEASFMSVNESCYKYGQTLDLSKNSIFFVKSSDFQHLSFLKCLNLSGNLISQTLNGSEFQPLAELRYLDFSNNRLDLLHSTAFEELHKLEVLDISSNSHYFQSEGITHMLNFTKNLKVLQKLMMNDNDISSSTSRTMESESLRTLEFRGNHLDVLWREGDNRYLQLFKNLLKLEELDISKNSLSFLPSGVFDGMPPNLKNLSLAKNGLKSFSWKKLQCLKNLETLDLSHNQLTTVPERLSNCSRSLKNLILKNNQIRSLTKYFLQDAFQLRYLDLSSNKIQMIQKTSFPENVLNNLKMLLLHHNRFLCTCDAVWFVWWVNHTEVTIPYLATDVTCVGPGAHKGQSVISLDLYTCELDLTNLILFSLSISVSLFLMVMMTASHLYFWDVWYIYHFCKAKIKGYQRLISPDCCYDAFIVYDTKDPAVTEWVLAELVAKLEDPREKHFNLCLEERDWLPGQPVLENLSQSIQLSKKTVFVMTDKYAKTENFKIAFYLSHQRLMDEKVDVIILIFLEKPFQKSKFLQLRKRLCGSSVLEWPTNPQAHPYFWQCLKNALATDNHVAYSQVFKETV
Experiment: TLR7 cellular NFκB-luc reporter assay, wild type TLR7
Assay type: cell-based
Set-up: unit not given here
Conditions: lowest effective concentration, wild type TLR7 (compounds 74 onward)
Procedure, shortened: (§1)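 Transfected HEK293 cells expressing wild type or second leucine-rich repeat-deleted TLR7 or TLR8 together with an NFκB-luciferase reporter are treated with compound for 6 hours. Activation is measured by luciferase, and LEC is the lowest concentration exceeding the assay standard deviation at least two fold.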

With `CCCC(C)Nc1nc(N)nc(C)c1OCc1ccccc1` (stereo not drawn) [Compound 168] the “TLR 7 wt LEC” value was greater than 25.

In order of falling “TLR 7 wt LEC” value:
1. CCCCCC(C)Nc1nc(N)ncc1OCc1ccc2ccccc2n1 (stereo not drawn) [Compound 189]  11.990
2. CCCCNc1nc(N)ncc1OCCCc1ccc(Cl)c(Cl)c1 [Compound 169]  5.110
3. CCCCNc1nc(N)ncc1OCc1cccc(C(N)=O)n1 [Compound 176]  0.868
4. CCCCNc1nc(N)ncc1OCCCc1ccncc1 [Compound 177]  0.795
5. CCCC(C)Nc1nc(N)ncc1OCc1ccc2ccccc2n1 (stereo not drawn) [Compound 185]  0.743
6. CCCCNc1nc(N)ncc1OCc1cc(OC2CCOC2)c(OC)cn1 (stereo not drawn) [Compound 174]  0.447
7. CCCCNc1nc(N)ncc1OCc1cc(OC)ccn1 [Compound 171]  0.396
8. CCCCNc1nc(N)ncc1OCc1cc(OCC2CC2)c(OC)cn1 [Compound 175]  0.367
9. CCCCNc1nc(N)ncc1OCc1cc(C(=O)OCC)ccn1 [Compound 170]  0.319
10. CCC[C@@H](CCO)Nc1nc(N)ncc1OCc1ccc2ccccc2n1 [Compound 188]  0.237
11. CCCCNc1nc(N)ncc1OCc1cc(OC2CCCC2)c(OC)cn1 [Compound 173]  0.222
12. CCCCNc1nc(N)ncc1OCc1cc(OC2Cc3ccccc3C2)c(OC)cn1 [Compound 172]  0.187
13. CCCCNc1nc(N)ncc1OCc1cccc2cccnc12 [Compound 184]  0.157
14. CCCCNc1nc(N)ncc1OCc1cc(C(F)(F)F)n(C)n1 [Compound 181]  0.146
15. CCCC[C@@H](CCO)Nc1nc(N)ncc1OCc1ccc2ccccc2n1 [Compound 186]  0.122
16. CCCCNc1nc(N)ncc1OCc1ncccc1OC [Compound 179]  0.078
17. CCC[C@@H](CCO)Nc1nc(N)ncc1OCc1ncc(C)c(OC)c1C [Compound 187]  0.074
18. CCCCNc1nc(N)ncc1OCc1nn(C)c2cc(OC)c(OC)cc12 [Compound 183]  0.056

Molecular target: T2, human TLR8 (wild type sequence) (Homo sapiens, UniProt Q9NR97)
T2 construct: expressed in transfected cells; host or cells: HEK293
T2 sequence (Q9NR97 27-1041): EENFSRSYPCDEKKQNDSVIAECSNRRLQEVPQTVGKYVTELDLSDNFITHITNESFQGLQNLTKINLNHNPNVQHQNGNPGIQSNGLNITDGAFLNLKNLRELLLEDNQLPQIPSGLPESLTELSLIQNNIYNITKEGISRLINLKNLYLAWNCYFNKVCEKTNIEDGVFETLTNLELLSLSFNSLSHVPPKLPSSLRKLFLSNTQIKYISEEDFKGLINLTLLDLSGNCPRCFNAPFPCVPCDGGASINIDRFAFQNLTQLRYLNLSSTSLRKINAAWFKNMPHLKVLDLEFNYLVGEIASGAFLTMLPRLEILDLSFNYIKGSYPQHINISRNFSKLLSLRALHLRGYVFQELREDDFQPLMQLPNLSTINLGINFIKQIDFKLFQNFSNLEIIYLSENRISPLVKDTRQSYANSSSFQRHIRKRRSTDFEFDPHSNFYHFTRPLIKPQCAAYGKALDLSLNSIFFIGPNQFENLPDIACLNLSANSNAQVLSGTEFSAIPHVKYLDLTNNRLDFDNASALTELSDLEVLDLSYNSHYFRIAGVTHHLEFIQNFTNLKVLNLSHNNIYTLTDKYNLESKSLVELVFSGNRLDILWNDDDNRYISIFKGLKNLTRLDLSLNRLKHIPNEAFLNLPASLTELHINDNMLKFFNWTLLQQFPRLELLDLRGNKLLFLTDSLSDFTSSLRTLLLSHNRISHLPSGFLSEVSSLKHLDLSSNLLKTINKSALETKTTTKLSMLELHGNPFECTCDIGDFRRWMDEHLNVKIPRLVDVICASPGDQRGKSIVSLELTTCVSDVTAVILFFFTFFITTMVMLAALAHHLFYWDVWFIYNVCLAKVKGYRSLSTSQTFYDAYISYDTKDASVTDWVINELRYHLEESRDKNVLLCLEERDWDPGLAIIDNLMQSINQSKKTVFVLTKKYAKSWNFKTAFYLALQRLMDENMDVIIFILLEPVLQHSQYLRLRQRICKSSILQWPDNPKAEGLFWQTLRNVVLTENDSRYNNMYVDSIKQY
Experiment: TLR8 cellular NFκB-luc reporter assay, wild type TLR8
Assay type: cell-based
Set-up: unit not given here
Conditions: lowest effective concentration, wild type TLR8 (compounds 74 onward)
Procedure, shortened: as §1

In order of rising “TLR 8 wt LEC” value:
1. CCCCNc1nc(N)ncc1OCc1ncccc1OC [Compound 179]  0.142
2. CCC[C@@H](CCO)Nc1nc(N)ncc1OCc1ncc(C)c(OC)c1C [Compound 187]  0.178
3. CCCCNc1nc(N)ncc1OCc1cccc(C(N)=O)n1 [Compound 176]  0.463
4. CCC[C@@H](CCO)Nc1nc(N)ncc1OCc1ccc2ccccc2n1 [Compound 188]  0.530
5. CCCC[C@@H](CCO)Nc1nc(N)ncc1OCc1ccc2ccccc2n1 [Compound 186]  0.680
6. CCCCNc1nc(N)ncc1OCCCc1ccncc1 [Compound 177]  0.819
7. CCCCNc1nc(N)ncc1OCc1cc(OC)ccn1 [Compound 171]  1.060
8. CCCCNc1nc(N)ncc1OCc1cc(C(F)(F)F)n(C)n1 [Compound 181]  1.210
9. CCCCNc1nc(N)ncc1OCc1nn(C)c2cc(OC)c(OC)cc12 [Compound 183]  1.580
10. CCCCNc1nc(N)ncc1OCc1cccc2cccnc12 [Compound 184]  1.650
11. CCCCNc1nc(N)ncc1OCc1cc(C(=O)OCC)ccn1 [Compound 170]  1.750
12. CCCCNc1nc(N)ncc1OCc1cc(OC2Cc3ccccc3C2)c(OC)cn1 [Compound 172]  2.000
13. CCCC(C)Nc1nc(N)ncc1OCc1ccc2ccccc2n1 (stereo not drawn) [Compound 185]  2.340
14. CCCCNc1nc(N)ncc1OCc1cc(OCC2CC2)c(OC)cn1 [Compound 175]  2.480
15. CCCCNc1nc(N)ncc1OCc1cc(OC2CCCC2)c(OC)cn1 [Compound 173]  2.550
16. CCCCNc1nc(N)ncc1OCc1cc(OC2CCOC2)c(OC)cn1 (stereo not drawn) [Compound 174]  2.610
17. CCCC(C)Nc1nc(N)nc(C)c1OCc1ccccc1 (stereo not drawn) [Compound 168]  14.900

In the case of `CCCCNc1nc(N)ncc1OCCCc1ccc(Cl)c(Cl)c1` [Compound 169], the “TLR 8 wt LEC” value is reported as greater than 25.
With `CCCCCC(C)Nc1nc(N)ncc1OCc1ccc2ccccc2n1` (stereo not drawn) [Compound 189] the “TLR 8 wt LEC” value was greater than 25.

Test system: HCV replicon in Huh-7 luc/neo cells
Experiment: Suppression of HCV replicon replication by conditioned media from compound-treated PBMC
Assay type: cell-based, HCV type 1 b
Conditions: Hepatitis C virus; conditioned media from compound-treated PBMC on Huh-7 luc/neo replicon cells (compounds 74 onward); read-out: PBMC HUH-7 EC50
Procedure, shortened: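 Readout is firefly luciferase from an HCV genotype 1b NS3-NS5B bicistronic replicon in Huh-7 cells, measured 24 h after adding conditioned medium. That medium came from overnight culture of compound-treated PBMC (2×10^5/well, human AB serum, at least two donors). Interferon α-2a was the reference.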

In order of falling EC50:
1. CCCCCC(C)Nc1nc(N)ncc1OCc1ccc2ccccc2n1 (stereo not drawn) [Compound 189]  17600 nM
2. CCCC(C)Nc1nc(N)nc(C)c1OCc1ccccc1 (stereo not drawn) [Compound 168]  11700 nM
3. CCCCNc1nc(N)ncc1OCCCc1ccc(Cl)c(Cl)c1 [Compound 169]  3130 nM
4. CCCCNc1nc(N)ncc1OCc1cc(C(=O)OCC)ccn1 [Compound 170]  2630 nM
5. CCCC(C)Nc1nc(N)ncc1OCc1ccc2ccccc2n1 (stereo not drawn) [Compound 185]  488 nM
6. CCCCNc1nc(N)ncc1OCCCc1ccncc1 [Compound 177]  197 nM
7. CCCCNc1nc(N)ncc1OCc1cccc(C(N)=O)n1 [Compound 176]  173 nM
8. CCCCNc1nc(N)ncc1OCc1cc(OCC2CC2)c(OC)cn1 [Compound 175]  167 nM
9. CCCCNc1nc(N)ncc1OCc1cc(OC)ccn1 [Compound 171]  158 nM
10. CCCCNc1nc(N)ncc1OCc1cc(C(F)(F)F)n(C)n1 [Compound 181]  96 nM
11. CCCCNc1nc(N)ncc1OCc1cc(OC2CCCC2)c(OC)cn1 [Compound 173]  86 nM
12. CCC[C@@H](CCO)Nc1nc(N)ncc1OCc1ccc2ccccc2n1 [Compound 188]  86 nM
13. CCCC[C@@H](CCO)Nc1nc(N)ncc1OCc1ccc2ccccc2n1 [Compound 186]  65 nM
14. CCCCNc1nc(N)ncc1OCc1cccc2cccnc12 [Compound 184]  53 nM
15. CCCCNc1nc(N)ncc1OCc1cc(OC2CCOC2)c(OC)cn1 (stereo not drawn) [Compound 174]  52 nM
16. CCCCNc1nc(N)ncc1OCc1cc(OC2Cc3ccccc3C2)c(OC)cn1 [Compound 172]  45 nM
17. CCCCNc1nc(N)ncc1OCc1nn(C)c2cc(OC)c(OC)cc12 [Compound 183]  23 nM
18. CCC[C@@H](CCO)Nc1nc(N)ncc1OCc1ncc(C)c(OC)c1C [Compound 187]  22 nM
19. CCCCNc1nc(N)ncc1OCc1ncccc1OC [Compound 179]  21 nM
